Data as given in patent US8247211B2, “Glycopeptide antibiotics” (American Cyanamid Company, priority 2001, dated 2012).
In brackets after ≈: the same amount, converted by molar mass.

How the values were obtained:
Assay in all cases: In vitro antibacterial evaluation: minimum inhibitory concentration (MIC), broth dilution method
Format in all cases: cell-based
Enterococcus sp. = settings: 18 hours at 35° C.
Outline: (§1)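 An MIC is reported for each organism as the least concentration giving inhibition, using broth dilution over 64-0.06 μg/mL with a 5×10^5 CFU/mL inoculum.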

Escherichia coli = settings: 18 hours at 35° C.
Outline: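 Broth dilution per NCCLS M7-A2 in Muller-Hinton II […], inoculum 5×10^5 CFU/mL, antibiotic tested over 64-0.06 μg/mL. MIC is taken as the lowest concentration that inhibits growth. Panel includes recent clinical isolates resistant to methicillin, penicillin and/or vancomycin.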

Staphylococcus sp. = system: Staphylococcus sp.
Outline: as §1

Streptococcus sp. = settings: 18 hours at 35° C.
Outline: as §1

[1] = broth dilution, inoculum 5×10^5 CFU/mL

MIC Enterococcus avium (GC 4558) (Enterococcus sp.; Enterococcus avium (GC 4558)): 4 µg/mL (≈ 2.83 µM)
MIC Enterococcus faecalis (ATCC 29212) (Enterococcus sp.; Enterococcus faecalis (ATCC 29212)): 8 µg/mL (≈ 5.65 µM)
MIC Enterococcus faecalis (GC 2242) (Enterococcus sp.; Enterococcus faecalis (GC 2242)): 8 µg/mL (≈ 5.65 µM)
MIC Enterococcus faecalis (GC 2691) (Enterococcus sp.; Enterococcus faecalis (GC 2691)): 8 µg/mL (≈ 5.65 µM)
MIC Enterococcus faecalis (GC 3059) (Enterococcus sp.; Enterococcus faecalis (GC 3059)): 8 µg/mL (≈ 5.65 µM)
MIC Enterococcus faecalis (GC 4552) (Enterococcus sp.; Enterococcus faecalis (GC 4552)): 8 µg/mL (≈ 5.65 µM)
MIC Enterococcus faecalis (GC 4553) (Enterococcus sp.; Enterococcus faecalis (GC 4553)): 8 µg/mL (≈ 5.65 µM)
MIC Enterococcus faecalis (GC 4554) (Enterococcus sp.; Enterococcus faecalis (GC 4554)): 8 µg/mL (≈ 5.65 µM)
MIC Enterococcus faecalis (GC 6189) (Enterococcus sp.; Enterococcus faecalis (GC 6189)): 8 µg/mL (≈ 5.65 µM)
MIC Enterococcus faecium (GC 2243) (Enterococcus sp.; Enterococcus faecium (GC 2243)): 8 µg/mL (≈ 5.65 µM)
MIC Enterococcus faecium (GC 4556) (Enterococcus sp.; Enterococcus faecium (GC 4556)): 8 µg/mL (≈ 5.65 µM)
MIC Enterococcus faecium (GC 4557) (Enterococcus sp.; Enterococcus faecium (GC 4557)): 4 µg/mL (≈ 2.83 µM)
MIC Enterococcus avium (GC 4558) (Enterococcus sp.; [1]): 4 µg/mL (≈ 2.83 µM)
MIC Enterococcus faecalis (ATCC 29212) (Enterococcus sp.; [1]): 8 µg/mL (≈ 5.65 µM)
MIC Enterococcus faecalis (GC 2242) (Enterococcus sp.; [1]): 8 µg/mL (≈ 5.65 µM)
MIC Enterococcus faecalis (GC 2691) (Enterococcus sp.; [1]): 8 µg/mL (≈ 5.65 µM)
MIC Enterococcus faecalis (GC 3059) (Enterococcus sp.; [1]): 8 µg/mL (≈ 5.65 µM)
MIC Enterococcus faecalis (GC 4552) (Enterococcus sp.; [1]): 8 µg/mL (≈ 5.65 µM)
MIC Enterococcus faecalis (GC 4553) (Enterococcus sp.; [1]): 8 µg/mL (≈ 5.65 µM)
MIC Enterococcus faecalis (GC 4554) (Enterococcus sp.; [1]): 8 µg/mL (≈ 5.65 µM)
MIC Enterococcus faecalis (GC 6189) (Enterococcus sp.; [1]): 8 µg/mL (≈ 5.65 µM)
MIC Enterococcus faecium (GC 2243) (Enterococcus sp.; [1]): 8 µg/mL (≈ 5.65 µM)
MIC Enterococcus faecium (GC 4556) (Enterococcus sp.; [1]): 8 µg/mL (≈ 5.65 µM)
MIC Enterococcus faecium (GC 4557) (Enterococcus sp.; [1]): 4 µg/mL (≈ 2.83 µM)
MIC Escherichia coli (ATCC 25922) (Escherichia coli; Escherichia coli (ATCC 25922)): 32 µg/mL (≈ 22.6 µM)
MIC Escherichia coli (GC 4559) (Escherichia coli; Escherichia coli (GC 4559)): 32 µg/mL (≈ 22.6 µM)
MIC Escherichia coli (GC 4560) (Escherichia coli; Escherichia coli (GC 4560)): 2 µg/mL (≈ 1.41 µM)
MIC Staphylococcus aureus (ATCC 29213) (Staphylococcus sp.; strain ATCC 29213): 2 µg/mL (≈ 1.41 µM)
MIC Staphylococcus aureus (GC 1131) (Staphylococcus sp.; strain GC 1131): 4 µg/mL (≈ 2.83 µM)
MIC Staphylococcus aureus (GC 3051) (Staphylococcus sp.; strain GC 3051): 2 µg/mL (≈ 1.41 µM)
MIC Staphylococcus aureus (GC 3053) (Staphylococcus sp.; strain GC 3053): 4 µg/mL (≈ 2.83 µM)
MIC Staphylococcus aureus (GC 4541) (Staphylococcus sp.; strain GC 4541): 2 µg/mL (≈ 1.41 µM)
MIC Staphylococcus aureus (GC 4542) (Staphylococcus sp.; strain GC 4542): 2 µg/mL (≈ 1.41 µM)
MIC Staphylococcus aureus-SMITH (GC 4543) (Staphylococcus sp.; strain GC 4543): 2 µg/mL (≈ 1.41 µM)
MIC Staphylococcus aureus (GC 4544) (Staphylococcus sp.; strain GC 4544): 4 µg/mL (≈ 2.83 µM)
MIC Staphylococcus aureus (GC 4545) (Staphylococcus sp.; strain GC 4545): 2 µg/mL (≈ 1.41 µM)
MIC Coagulase Negative Staphylococcus (GC 4547) (Staphylococcus sp.; strain GC 4547): 2 µg/mL (≈ 1.41 µM)
MIC Coagulase Negative Staphylococcus (GC 4548) (Staphylococcus sp.; strain GC 4548): 2 µg/mL (≈ 1.41 µM)
MIC Coagulase Negative Staphylococcus (GC 4549) (Staphylococcus sp.; strain GC 4549): 2 µg/mL (≈ 1.41 µM)
MIC Coagulase Negative Staphylococcus (GC 4551) (Staphylococcus sp.; strain GC 4551): 2 µg/mL (≈ 1.41 µM)
MIC Coagulase Negative Staphylococcus (GC 6257) (Staphylococcus sp.; strain GC 6257): 1 µg/mL (≈ 0.706 µM)
MIC Streptococcus agalactiae (GC 4564) (Streptococcus sp.; Streptococcus agalactiae (GC 4564)): 1 µg/mL (≈ 0.706 µM)
MIC Streptococcus pneumoniae (ATCC 6301) (Streptococcus sp.; Streptococcus pneumoniae (ATCC 6301)): 0.5 µg/mL (≈ 0.353 µM)
MIC Streptococcus pneumoniae (GC 1894) (Streptococcus sp.; Streptococcus pneumoniae (GC 1894)): <0.06 µg/mL
MIC Streptococcus pneumoniae (GC 4565) (Streptococcus sp.; Streptococcus pneumoniae (GC 4565)): 0.25 µg/mL (≈ 0.177 µM)
MIC Streptococcus pyogenes (GC 4563) (Streptococcus sp.; Streptococcus pyogenes (GC 4563)): 1 µg/mL (≈ 0.706 µM)
MIC Streptococcus agalactiae (GC 4564) (Streptococcus sp.; [1]): 1 µg/mL (≈ 0.706 µM)
MIC Streptococcus pneumoniae (ATCC 6301) (Streptococcus sp.; [1]): 0.5 µg/mL (≈ 0.353 µM)
MIC Streptococcus pneumoniae (GC 1894) (Streptococcus sp.; [1]): <0.06 µg/mL
MIC Streptococcus pneumoniae (GC 4565) (Streptococcus sp.; [1]): 0.25 µg/mL (≈ 0.177 µM)
MIC Streptococcus pyogenes (GC 4563) (Streptococcus sp.; [1]): 1 µg/mL (≈ 0.706 µM)
SMILES: CC(c1ccccc1)C1NC(=O)CNC(=O)C(CO)NC(=O)C(C(O)C2CNC(=N)N2C2OC(CO)C(O)C(O)C2O)NC(=O)C(C(O)C2CNC(=N)N2)NC(=O)C(Cc2ccc(OC3OC(CO)C(OC4OC5COC6(OC5C(O)C4O)C4CCCC6CCC4)C(O)C3O)cc2)NC1=O (stereo not drawn) [Example 212, Cyclo[glycyl-β-methylphenylalanyl-O-[4-O-(4,6-O-bicyclo[3.3.1]non-9-ylidenehexopyranosyl]hexopyranosyl]tyrosyl-3-(2-iminoimidazolidin-4-yl)seryl-3-(3-hexopyranosyl-2-iminoimidazolidin-4-yl)serylseryl]]
MIC Staphylococcus haemolyticus (GC 4546) (Staphylococcus sp.; strain GC 4546): 2 µg/mL (≈ 1.41 µM)
